Results from paper PMC8467136, “Enabling Efficient Folding and High-Resolution Crystallographic Analysis of Bracelet Cyclotides” (Molecules, 2021).
Bridge positions count the residues as written; N and C are the ends. Peptide text beside a SMILES is read from it.

Key:
[1] = tested on: POPC/POPE (80:20) model membrane; test: Membrane binding to POPC/POPE lipid bilayers by surface plasmon resonance (SPR); conditions: for P/L Max, peptide-to-lipid maximum binding value / Kd: BIAcore T200, L1 chip, POPC/POPE (80:20) bilayer, 10 mM HEPES, 150 mM NaCl; for P/L Max, peptide-to-lipid maximum binding value: pH 7.4, injection 180 s, dissociation 600 s, nonlinear regression; for Kd: pH 7.4, nonlinear regression, read-out: KD, peptide concentration required to achieve half-maximum binding at equilibrium
Excerpt: Cyclotides are reported to exert their biological activities via membrane binding, particularly by selective binding to lipids containing phosphatidylethanolamine (PE) headgroups. Therefore, to evaluate the functional impact of the single mutation on bracelet cyclotides, the membrane-binding ability of these variants towards PE-containing lipid bilayers was examined using surface plasmon resonance (SPR). The model membrane comprising 80% 1-palmitoyloleoyl-phosphatidylcholine (POPC) and 20% 1-palmitoyloleoyl-phosphatidylethanolamine (POPE) was used. Binding affinity was evaluated by the peptide-to-lipid maximum binding value (P/L max, mol/mol) and the peptide concentration required to achieve half-maximum binding at equilibrium (KD value, μM). […] The negative effect of the [I11G] bracelet cyclotide mutation on lipid binding was expected, as the mutation reduces surface hydrophobicity, a previously reported determinant of membrane binding. The SPR dose-response curves and sensorgrams are shown in Figure S4 in Supplementary Material.
The binding affinity of bracelet cyclotides and their variants toward lipid bilayers was studied using SPR, as described previously. Two synthetic lipids, 1-palmitoyl-2-oleoyl-glycero-3-phosphocholine (POPC) and 1-palmitoyl-2-oleoyl-sn-glycero-3-phosphoethanolamine (POPE), were purchased from Avanti Polar Lipids (USA). Briefly, homogenous, small, unilamellar vesicles composed of POPC/POPE (80:20, mol/mol) were obtained by extruding the vesicle suspension through a 50-nm pore size polycarbonate membrane. L1 sensor chips and BIAcore T200 instrument were used (Cytiva, Marlborough, MA, USA). After the lipid was loaded and formed a bilayer membrane on the L1 chip, peptide solutions were injected over the lipid surface for 180 s and the dissociation was monitored for 600 s. Peptides were tested at concentrations ranging from 4–32 μM. Peptide-to-lipid molar ratio and KD values were calculated by nonlinear regression using GraphPad Prism software (version 8.3.1). Peptide solutions and lipid vesicles were prepared in HEPES buffer (10 mM HEPES, 150 mM NaCl, pH 7.4, filtered) for SPR studies.

HeLa cells = test: Cytotoxicity against HeLa cells, resazurin assay; type: cell-based; conditions: 5000 cells/well, 24-h incubation with peptide, then resazurin 18 h, triplicate, mean ± SEM
Protocol: To further confirm the activity of these mutants, their cytotoxicity against HeLa cancer cells was evaluated along with wild-type bracelet cyclotides. […] Of the four [I11G] mutants, the hyen D analogue had the highest activity, possibly because hyen D has one more hydrophobic residue in loop 3 compared to the other three cyclotides, which may contribute to its higher lipid-binding capacity (P/L max = 0.37) and help offset the hydrophobicity loss caused by the [I11G] mutation.
The cytotoxicity of the peptides was evaluated using the resazurin assay, as described previously. HeLa cells were seeded at 5000 cells/well in a 96-well, flat-bottomed plate one day prior to the experiments. Peptide solutions were prepared in water and incubated with HeLa cells at concentrations ranging from 16 to 0.125 μM or 8 to 0.063 μM in triplicate (final concentrations). Water and 1% Triton X-100 (TX) were applied as negative and positive control, respectively. After 24-h incubation, 10 μL of resazurin (0.05%, w/v) was added and incubated with cells for another 18 h. The absorbance was measured at 540 and 620 nm on a microplate reader (Infinite M1000 Pro microplate reader, Tecan, Switzerland). The percentage of cell death was quantified by calculating the absorbance ratio, R (R = absorbance at 620/540), and applying the following equation: % Cell death = (Rsample − RH2O)/(RTX − RH2O) × 100. Data were analyzed with GraphPad Prism software (version 8.3.1) using Specific binding with Hill slope algorithm.

SMILES	P/L Max, peptide-to-lipid maximum binding value [1]	Kd [1] [µM]	Fold weaker affinity to membranes compared to parent peptide ([1]; POPC/POPE (80:20), compared with hyen D) [fold]	CC50 on HeLa (half maximum cytotoxic concentration) (HeLa cells) [µM]
CC[C@H](C)[C@@H]1NC(=O)[C@H](C)NC(=O)[C@H](C)NC(=O)[C@H]([C@@H](C)O)NC(=O)[C@H](Cc2ccccc2)NC(=O)[C@@H]2CSSC[C@@H]3NC(=O)[C@H](C(C)C)NC(=O)[C@H](CCCCN)NC(=O)[C@H](CO)NC(=O)[C@H](CCCCN)NC(=O)[C@@H]4CSSC[C@H](NC(=O)[C@H](CO)NC(=O)[C@H](CCC(=O)O)NC(=O)CNC(=O)[C@H](CSSC[C@H](NC(=O)CNC1=O)C(=O)N[C@@H](CO)C(=O)N4)NC(=O)[C@@H]1CCCN1C(=O)[C@H](Cc1ccccc1)NC(=O)CNC(=O)[C@H](CC(N)=O)NC(=O)[C@H](CCCCN)NC(=O)[C@H](Cc1ccc(O)cc1)NC3=O)C(=O)N[C@@H](C(C)C)C(=O)N[C@@H](Cc1ccc(O)cc1)C(=O)NCC(=O)N1CCC[C@H]1C(=O)N2 [[I11G]hD] (cyclo(AAIGCSCKSKVCYKNGFPCGESCVYGPCFT); disulfide 5-19, 7-23, 12-28)	0.24 ± 0.01 mol/mol	81 ± 7.91	18	50.2 ± 4.61
CC[C@H](C)[C@@H]1NC(=O)[C@H](C)NC(=O)[C@H](CO)NC(=O)[C@H](CO)NC(=O)[C@H]([C@@H](C)CC)NC(=O)[C@@H]2CSSC[C@@H]3NC(=O)[C@H](C(C)C)NC(=O)[C@H](CCCCN)NC(=O)[C@H](CO)NC(=O)[C@H](CCCCN)NC(=O)[C@@H]4CSSC[C@H](NC(=O)[C@H](CO)NC(=O)[C@H](CCC(=O)O)NC(=O)CNC(=O)[C@H](CSSC[C@H](NC(=O)CNC1=O)C(=O)N[C@@H](CO)C(=O)N4)NC(=O)[C@@H]1CCCN1C(=O)[C@H]([C@@H](C)CC)NC(=O)CNC(=O)[C@H](CC(N)=O)NC(=O)[C@H](CCCNC(=N)N)NC(=O)[C@H](Cc1ccc(O)cc1)NC3=O)C(=O)N[C@@H](C(C)C)C(=O)N[C@@H](Cc1c[nH]c3ccccc13)C(=O)N[C@@H]([C@@H](C)CC)C(=O)N1CCC[C@H]1C(=O)N2 [cyO2, cycloviolacin O2, reference compound] (cyclo(AIGCSCKSKVCYRNGIPCGESCVWIPCISS); disulfide 4-18, 6-22, 11-27)	0.28 ± 0.00 mol/mol	3.9 ± 0.11		1.05 ± 0.06
CC[C@H](C)[C@@H]1NC(=O)[C@H](C)NC(=O)[C@H](C)NC(=O)[C@H]([C@@H](C)O)NC(=O)[C@H](Cc2ccccc2)NC(=O)[C@@H]2CSSC[C@@H]3NC(=O)[C@H](C(C)C)NC(=O)[C@H](CCCCN)NC(=O)[C@H](CO)NC(=O)[C@H](CCCCN)NC(=O)[C@@H]4CSSC[C@H](NC(=O)[C@H](CO)NC(=O)[C@H](CCC(=O)O)NC(=O)CNC(=O)[C@H](CSSC[C@H](NC(=O)CNC1=O)C(=O)N[C@@H](CO)C(=O)N4)NC(=O)[C@@H]1CCCN1C(=O)[C@H](Cc1ccccc1)NC(=O)CNC(=O)[C@H](CC(N)=O)NC(=O)[C@H](CCCCN)NC(=O)[C@H](Cc1ccc(O)cc1)NC3=O)C(=O)N[C@@H](C(C)C)C(=O)N[C@@H](Cc1ccc(O)cc1)C(=O)N[C@@H](CC(C)C)C(=O)N1CCC[C@H]1C(=O)N2 [[I11L]hD] (cyclo(AAIGCSCKSKVCYKNGFPCGESCVYLPCFT); disulfide 5-19, 7-23, 12-28)	0.36 ± 0.01 mol/mol	4.39 ± 0.5		0.70 ± 0.02
CC[C@H](C)[C@@H]1NC(=O)CNC(=O)[C@H](CC(N)=O)NC(=O)[C@H](CCCNC(=N)N)NC(=O)[C@H](Cc2ccc(O)cc2)NC(=O)[C@@H]2CSSC[C@@H]3NC(=O)[C@@H]4CCCN4C(=O)CNC(=O)[C@H](Cc4c[nH]c5ccccc45)NC(=O)[C@H](C(C)C)NC(=O)[C@@H]4CSSC[C@H](NC(=O)[C@H](CO)NC(=O)[C@H](CSSC[C@H](NC(=O)[C@@H]5CCCN5C1=O)C(=O)NCC(=O)N[C@@H](CCC(=O)O)C(=O)N[C@@H](CO)C(=O)N4)NC(=O)CNC(=O)[C@H](C(C)C)NC(=O)[C@H](C)NC(=O)[C@H](CO)NC(=O)[C@H]([C@@H](C)O)NC(=O)[C@H](CC(C)C)NC3=O)C(=O)N[C@@H](CCCCN)C(=O)N[C@@H](CO)C(=O)N[C@@H](CCCCN)C(=O)N[C@@H](C(C)C)C(=O)N2 [[I11G]cyO9] (cyclo(AVGCSCKSKVCYRNGIPCGESCVWGPCLTS); disulfide 4-18, 6-22, 11-27)	n.b.			>64
CC[C@H](C)[C@@H]1NC(=O)[C@@H]2CSSC[C@@H]3NC(=O)[C@H](C(C)C)NC(=O)[C@H](CCCCN)NC(=O)[C@H](CC(=O)O)NC(=O)[C@H]([C@@H](C)O)NC(=O)[C@@H]4CSSC[C@H](NC(=O)[C@H](CO)NC(=O)[C@H](CCC(=O)O)NC(=O)CNC(=O)[C@H](CSSC[C@H](NC(=O)CNC(=O)[C@H]([C@@H](C)CC)NC(=O)[C@H](C(C)C)NC(=O)CNC(=O)[C@H](CO)NC1=O)C(=O)N[C@@H](CO)C(=O)N4)NC(=O)[C@@H]1CCCN1C(=O)[C@H]([C@@H](C)O)NC(=O)CNC(=O)[C@H](CC(N)=O)NC(=O)[C@H](CC(C)C)NC(=O)[C@H](Cc1ccc(O)cc1)NC3=O)C(=O)N[C@@H](C(C)C)C(=O)N[C@@H](Cc1ccc(O)cc1)C(=O)N[C@@H]([C@@H](C)CC)C(=O)N1CCC[C@H]1C(=O)N2 [kB5, kalata B5, reference compound] (cyclo(CGESCVYIPCISGVIGCSCTDKVCYLNGTP); disulfide 1-17, 5-19, 10-24)	0.22 ± 0.00 mol/mol	5.02 ± 0.17		3.11 ± 0.20
CC[C@H](C)[C@@H]1NC(=O)[C@@H]2CSSC[C@@H]3NC(=O)[C@H](C(C)C)NC(=O)[C@H](CCCCN)NC(=O)[C@H](CC(=O)O)NC(=O)[C@H]([C@@H](C)O)NC(=O)[C@@H]4CSSC[C@H](NC(=O)[C@H](CO)NC(=O)[C@H](CCC(=O)O)NC(=O)CNC(=O)[C@H](CSSC[C@H](NC(=O)CNC(=O)[C@H]([C@@H](C)CC)NC(=O)[C@H](C(C)C)NC(=O)CNC(=O)[C@H](CO)NC1=O)C(=O)N[C@@H](CO)C(=O)N4)NC(=O)[C@@H]1CCCN1C(=O)[C@H]([C@@H](C)O)NC(=O)CNC(=O)[C@H](CC(N)=O)NC(=O)[C@H](CC(C)C)NC(=O)[C@H](Cc1ccc(O)cc1)NC3=O)C(=O)N[C@@H](C(C)C)C(=O)N[C@@H](Cc1ccc(O)cc1)C(=O)N[C@@H](CC(C)C)C(=O)N1CCC[C@H]1C(=O)N2 [[I11L]kB5] (cyclo(CGESCVYLPCISGVIGCSCTDKVCYLNGTP); disulfide 1-17, 5-19, 10-24)	0.22 ± 0.00 mol/mol	4.95 ± 0.12		4.31 ± 0.48
